# Test results: ChEMBL document CHEMBL3045001, “Synthesis and evaluation of analgesic, anti-inflammatory, and anticancer activities of new pyrazole-3(5)-carboxylic acid derivatives” (Med Chem Res, 2013)
# Legend:
# [1] = system: Mus musculus; experiment: Anti-inflammatory activity in carrageenan-induced Mus musculus Swiss albino (mouse) paw edema model assessed as paw swelling at 100 mg/kg, sc administered 30 min prior to carrageenan injection measured after 180 min (reference value: 51.0 +/-3.0 x10'-2 mm); format: functional; conditions: route subcutaneous
# [2] = species: Mus musculus; experiment: Acute toxicity against Mus musculus Swiss albino (mouse) assessed as mortality after 48 hr; format: organism-based; conditions: in vivo
# [3] = system: MDA-MB-231; experiment: Anticancer activity against Homo sapiens (human) estrogen-independent MDA-MB-231 cells assessed as cell viability at 50 uM after 24 hr by MTT assay (reference value: 100 +/-7.08%); format: functional; conditions: MDA-MB-231, 24 h, read-out: Activity
# [4] = system: MCF7; experiment: Anticancer activity against Homo sapiens (human) MCF7 cells assessed as cell viability at 50 uM after 24 hr by MTT assay (reference value: 100 +/-2.74%); format: functional; conditions: MCF7, 24 h, read-out: Activity
# [5] = system: Mus musculus; experiment: Anti-inflammatory activity in carrageenan-induced Mus musculus Swiss albino (mouse) paw edema model assessed as paw swelling at 100 mg/kg, sc administered 30 min prior to carrageenan injection measured after 90 min (reference value: 38.0 +/-2.0 x10'-2 mm); format: functional; conditions: route subcutaneous
# [6] = system: Mus musculus; experiment: Anti-inflammatory activity in carrageenan-induced Mus musculus Swiss albino (mouse) paw edema model assessed as paw swelling at 100 mg/kg, sc administered 30 min prior to carrageenan injection measured after 360 min (reference value: 77.0 +/-3.0 x10'-2 mm); format: functional; conditions: route subcutaneous
# [7] = system: Mus musculus; experiment: Anti-inflammatory activity in carrageenan-induced Mus musculus Swiss albino (mouse) paw edema model assessed as inhibition of paw edema at 100 mg/kg, sc administered 30 min prior to carrageenan injection measured after 360 min; format: functional; conditions: route subcutaneous
# [8] = system: HL-60; experiment: Anticancer activity against Homo sapiens (human) HL60 cells assessed as cell viability at 50 uM after 24 hr by MTT assay (reference value: 100 +/-3.55%); format: functional; conditions: HL-60, 24 h, read-out: Activity
# [9] = system: HeLa; experiment: Anticancer activity against Homo sapiens (human) HeLa cells assessed as cell viability at 50 uM after 48 hr by MTT assay (reference value: 100 +/-3.8%); format: functional; conditions: read-out: Activity
# [10] = system: Mus musculus; experiment: Anti-inflammatory activity in carrageenan-induced Mus musculus Swiss albino (mouse) paw edema model assessed as inhibition of paw edema at 100 mg/kg, sc administered 30 min prior to carrageenan injection measured after 180 min; format: functional; conditions: route subcutaneous
# [11] = system: Mus musculus; experiment: Anti-inflammatory activity in carrageenan-induced Mus musculus Swiss albino (mouse) paw edema model assessed as paw swelling at 100 mg/kg, sc administered 30 min prior to carrageenan injection measured after 270 min (rvb = 75.0 +/-3.0 x10'-2 mm); format: functional; conditions: route subcutaneous
# [12] = system: Raji; experiment: Anticancer activity against Homo sapiens (human) Raji cells assessed as cell viability at 50 uM after 24 hr by MTT assay (reference value: 100 +/-5.02%); format: functional; conditions: read-out: Activity
# [13] = system: HeLa; experiment: Anticancer activity against Homo sapiens (human) HeLa cells assessed as cell viability at 50 uM after 24 hr by MTT assay (reference value: 100 +/-4.13%); format: functional; conditions: read-out: Activity
# [14] = species: Mus musculus; experiment: Acute toxicity against Mus musculus Swiss albino (mouse) assessed as morbidity after 48 hr; format: organism-based; conditions: in vivo
# [15] = system: HL-60; experiment: Anticancer activity against Homo sapiens (human) HL60 cells assessed as cell viability at 50 uM after 48 hr by MTT assay (reference value: 100 +/-8.41%); format: functional; conditions: HL-60, 48 h, read-out: Activity
# [16] = system: MCF7; experiment: Anticancer activity against Homo sapiens (human) MCF7 cells assessed as cell viability at 50 uM after 48 hr by MTT assay (100 +/-5.08%); format: functional; conditions: MCF7, 48 h, read-out: Activity
# [17] = system: Mus musculus; experiment: Anti-inflammatory activity in carrageenan-induced Mus musculus Swiss albino (mouse) paw edema model assessed as inhibition of paw edema at 100 mg/kg, sc administered 30 min prior to carrageenan injection measured after 90 min; format: functional; conditions: route subcutaneous
# [18] = system: MDA-MB-231; experiment: Anticancer activity against Homo sapiens (human) estrogen-independent MDA-MB-231 cells assessed as cell viability at 50 uM after 48 hr by MTT assay (reference value: 100 +/-3.71%); format: functional; conditions: MDA-MB-231, 48 h, read-out: Activity
# [19] = system: Mus musculus; experiment: Anti-inflammatory activity in carrageenan-induced Mus musculus Swiss albino (mouse) paw edema model assessed as inhibition of paw edema at 100 mg/kg, sc administered 30 min prior to carrageenan injection measured after 270 min; format: functional; conditions: route subcutaneous
# [20] = system: Raji; experiment: Anticancer activity against Homo sapiens (human) Raji cells assessed as cell viability at 50 uM after 48 hr by MTT assay (reference value: 100 +/-4.26%); format: functional; conditions: read-out: Activity
# [21] = system: Mus musculus; experiment: Analgesic activity in Mus musculus Swiss albino (mouse) assessed as inhibition of p-benzoquinone-induced abdominal writhing at 100 mg/kg, sc administered 30 min prior to PBQ injection measured after 5 min for 15 min; format: functional, Abdomen; design: scale not given: the % may be the effect or the level left; conditions: route subcutaneous
Compound,Activity [1],Activity [2],viability at 50 µM [3],viability at 50 µM [4],Activity [5],Activity [6],inhibition in vivo at 100 mg/kg [7],viability at 50 µM [8],viability at 50 µM [9],inhibition in vivo at 100 mg/kg [10],Activity [11],viability at 50 µM [12],viability at 50 µM [13],Activity [14],viability at 50 µM [15],viability at 50 µM [16],viability at 50 µM [18],inhibition in vivo at 100 mg/kg [19],viability at 50 µM [20],Activity [21],further results
Cc1ccc(-c2cc(C(=O)NCc3cccnc3)n(Cc3ccccc3)n2)cc1,43 ×10⁻² mm,Non-toxic,65.1%,105%,36 ×10⁻² mm,57 ×10⁻² mm,25.3%,31.7%,82.6%,16.5%,57 ×10⁻² mm,86.4%,74.9%,Non-toxic,41.9%,100%,43.1%,24.4%,93.4%,,inhibition in vivo at 100 mg/kg [17]: 3.7%
COc1ccc(CN2CCN(C(=O)c3cc(-c4ccc(C)cc4)nn3Cc3ccccc3)CC2)c(OC)c1OC,28 ×10⁻² mm,Non-toxic,,,31 ×10⁻² mm,36 ×10⁻² mm,53.3%,,,44.7%,19 ×10⁻² mm,,,Non-toxic,,,,74.4%,,53%,inhibition in vivo at 100 mg/kg [17]: 17.8%
CCOC(=O)C1CCN(C(=O)c2cc(-c3ccc(C)cc3)n(Cc3ccccc3)n2)CC1,44 ×10⁻² mm,Non-toxic,121%,77.8%,40 ×10⁻² mm,31 ×10⁻² mm,59.8%,88.2%,47.1%,13.9%,32 ×10⁻² mm,56.5%,66.4%,Non-toxic,78.8%,94.5%,71.8%,57.8%,41.6%,83.2%,
Cc1ccc(-c2cc(C(=O)NNc3ccc4ccccc4n3)n(Cc3ccccc3)n2)cc1,39 ×10⁻² mm,Non-toxic,,,29 ×10⁻² mm,44 ×10⁻² mm,42.8%,,,24.1%,42 ×10⁻² mm,,,Non-toxic,,,,44.4%,,48.9%,inhibition in vivo at 100 mg/kg [17]: 23%
CCCCCCCOc1ccc(OC(=O)c2cc(-c3ccc(C)cc3)nn2Cc2ccccc2)cc1,47 ×10⁻² mm,Non-toxic,115%,100%,42.5 ×10⁻² mm,80 ×10⁻² mm,,118%,85.3%,9%,68 ×10⁻² mm,76.3%,109%,Non-toxic,108%,97.6%,63.2%,10%,84.3%,,
Cc1ccc(-c2cc(C(=O)Oc3ccc(Oc4ccc(C(F)(F)F)cc4)cc3)n(Cc3ccccc3)n2)cc1,43 ×10⁻² mm,Non-toxic,75.5%,63.6%,40 ×10⁻² mm,66 ×10⁻² mm,14.1%,114%,77.4%,17%,58 ×10⁻² mm,111%,89.1%,Non-toxic,86.3%,107%,50.3%,22.2%,121%,56.9%,
